Laboratory results taken from patent publication US11629143B2, “HipK4 inhibitors and uses thereof” (Vibliome Therapeutics, LLC, priority 2020, dated 2023).

Experiments:
Assay in all cases: Kinase panel (mobility shift)
Type in all cases: biochemical
[1] = biological target: RIPK2 (Homo sapiens, UniProt O43353)
How it was run: (§1)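 Microfluidic mobility-shift readout: product and substrate peaks are resolved by charge, and their fluorescence is compared to give enzyme activity. Enzyme, fluorescent substrate and test compound are reacted, then terminated before chip loading. Values are binned at 5 um: A 95% or greater, B 90%-94%, C 80%-89%.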

[2] = biological target: T1, TYRO3 (Homo sapiens, UniProt Q06418)
T1 sequence (Q06418 41-890): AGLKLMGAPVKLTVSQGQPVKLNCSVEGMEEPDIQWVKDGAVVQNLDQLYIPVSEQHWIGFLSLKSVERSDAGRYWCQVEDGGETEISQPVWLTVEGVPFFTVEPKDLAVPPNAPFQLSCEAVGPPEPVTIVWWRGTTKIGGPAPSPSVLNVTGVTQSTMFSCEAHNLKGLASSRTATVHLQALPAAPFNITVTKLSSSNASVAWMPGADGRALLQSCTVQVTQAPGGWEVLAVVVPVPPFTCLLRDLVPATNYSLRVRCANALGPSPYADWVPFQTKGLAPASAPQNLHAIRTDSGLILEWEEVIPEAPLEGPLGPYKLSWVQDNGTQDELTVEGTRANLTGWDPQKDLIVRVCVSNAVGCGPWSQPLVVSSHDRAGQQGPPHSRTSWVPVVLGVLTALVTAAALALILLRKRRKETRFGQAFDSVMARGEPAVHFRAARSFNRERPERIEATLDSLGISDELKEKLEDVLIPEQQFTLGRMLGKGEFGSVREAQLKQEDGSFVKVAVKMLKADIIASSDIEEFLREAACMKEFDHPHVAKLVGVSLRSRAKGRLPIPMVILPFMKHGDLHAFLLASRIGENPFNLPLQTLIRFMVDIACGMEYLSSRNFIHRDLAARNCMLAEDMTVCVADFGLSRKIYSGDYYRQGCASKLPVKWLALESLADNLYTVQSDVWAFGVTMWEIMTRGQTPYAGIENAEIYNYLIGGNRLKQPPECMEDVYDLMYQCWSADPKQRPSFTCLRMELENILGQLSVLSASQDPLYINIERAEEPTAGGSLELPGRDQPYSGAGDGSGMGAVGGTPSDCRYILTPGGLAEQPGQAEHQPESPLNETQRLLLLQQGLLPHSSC
How it was run: as §1

[3] = biological target: TIE2 (Homo sapiens, UniProt Q02763)
Sequence of TIE2 (Q02763 23-1124, species assumed): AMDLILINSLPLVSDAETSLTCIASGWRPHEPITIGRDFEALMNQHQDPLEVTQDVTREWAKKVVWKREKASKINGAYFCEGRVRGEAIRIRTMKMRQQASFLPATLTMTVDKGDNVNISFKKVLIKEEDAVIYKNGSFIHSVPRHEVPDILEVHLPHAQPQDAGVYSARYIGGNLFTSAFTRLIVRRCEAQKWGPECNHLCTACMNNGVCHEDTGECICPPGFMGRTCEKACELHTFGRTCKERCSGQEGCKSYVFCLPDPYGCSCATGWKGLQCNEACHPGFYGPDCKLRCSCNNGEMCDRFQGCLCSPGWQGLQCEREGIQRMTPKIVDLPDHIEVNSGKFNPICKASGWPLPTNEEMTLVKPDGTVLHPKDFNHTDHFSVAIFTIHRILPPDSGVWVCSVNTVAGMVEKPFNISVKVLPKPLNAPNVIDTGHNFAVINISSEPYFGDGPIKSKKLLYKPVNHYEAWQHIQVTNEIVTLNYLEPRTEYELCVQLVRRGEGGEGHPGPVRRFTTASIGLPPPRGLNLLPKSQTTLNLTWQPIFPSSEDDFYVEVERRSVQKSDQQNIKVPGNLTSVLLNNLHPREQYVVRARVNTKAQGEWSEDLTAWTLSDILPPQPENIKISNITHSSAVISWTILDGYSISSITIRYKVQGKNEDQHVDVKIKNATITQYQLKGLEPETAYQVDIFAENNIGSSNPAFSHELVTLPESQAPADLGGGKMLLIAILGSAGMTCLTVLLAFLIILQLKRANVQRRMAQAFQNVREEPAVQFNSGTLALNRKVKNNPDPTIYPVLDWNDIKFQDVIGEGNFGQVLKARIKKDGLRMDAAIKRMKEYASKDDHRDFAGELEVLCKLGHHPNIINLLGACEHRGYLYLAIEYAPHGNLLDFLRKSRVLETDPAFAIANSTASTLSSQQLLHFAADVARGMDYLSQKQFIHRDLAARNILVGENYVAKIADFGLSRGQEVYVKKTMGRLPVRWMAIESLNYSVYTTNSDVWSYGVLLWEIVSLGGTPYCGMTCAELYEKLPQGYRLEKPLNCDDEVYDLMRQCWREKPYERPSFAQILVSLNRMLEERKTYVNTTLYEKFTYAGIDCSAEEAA
How it was run: as §1

[4] = biological target: LOK (Homo sapiens, UniProt O94804); details: at 5 um
Sequence of LOK (O94804 whole entry, species assumed): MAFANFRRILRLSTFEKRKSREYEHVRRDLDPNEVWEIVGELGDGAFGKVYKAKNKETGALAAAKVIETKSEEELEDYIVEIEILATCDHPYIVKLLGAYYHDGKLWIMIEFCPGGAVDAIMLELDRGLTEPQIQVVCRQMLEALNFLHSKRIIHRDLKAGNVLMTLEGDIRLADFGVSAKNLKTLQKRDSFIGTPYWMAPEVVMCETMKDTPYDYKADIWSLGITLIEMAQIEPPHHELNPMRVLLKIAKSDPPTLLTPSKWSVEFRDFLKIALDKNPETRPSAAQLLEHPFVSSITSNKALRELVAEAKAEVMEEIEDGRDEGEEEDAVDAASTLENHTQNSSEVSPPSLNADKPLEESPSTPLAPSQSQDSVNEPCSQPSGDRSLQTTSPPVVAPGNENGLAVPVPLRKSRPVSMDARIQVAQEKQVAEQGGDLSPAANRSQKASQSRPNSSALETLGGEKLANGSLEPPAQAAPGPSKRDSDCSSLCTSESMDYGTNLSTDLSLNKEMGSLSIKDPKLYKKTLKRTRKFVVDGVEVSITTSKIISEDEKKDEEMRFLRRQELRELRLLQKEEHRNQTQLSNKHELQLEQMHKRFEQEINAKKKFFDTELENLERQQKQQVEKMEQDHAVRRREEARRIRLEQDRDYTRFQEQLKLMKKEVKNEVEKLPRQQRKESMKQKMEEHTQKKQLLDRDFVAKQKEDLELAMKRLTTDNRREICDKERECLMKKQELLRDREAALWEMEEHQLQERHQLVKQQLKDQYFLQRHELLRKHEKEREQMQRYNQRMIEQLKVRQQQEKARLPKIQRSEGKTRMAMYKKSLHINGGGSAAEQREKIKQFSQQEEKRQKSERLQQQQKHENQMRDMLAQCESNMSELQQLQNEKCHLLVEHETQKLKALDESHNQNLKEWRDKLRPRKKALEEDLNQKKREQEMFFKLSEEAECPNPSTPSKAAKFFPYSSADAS
How it was run: as §1

[5] = biological target: T2, HIPK4 (Homo sapiens, UniProt Q8NE63)
T2 sequence (Q8NE63 1-616): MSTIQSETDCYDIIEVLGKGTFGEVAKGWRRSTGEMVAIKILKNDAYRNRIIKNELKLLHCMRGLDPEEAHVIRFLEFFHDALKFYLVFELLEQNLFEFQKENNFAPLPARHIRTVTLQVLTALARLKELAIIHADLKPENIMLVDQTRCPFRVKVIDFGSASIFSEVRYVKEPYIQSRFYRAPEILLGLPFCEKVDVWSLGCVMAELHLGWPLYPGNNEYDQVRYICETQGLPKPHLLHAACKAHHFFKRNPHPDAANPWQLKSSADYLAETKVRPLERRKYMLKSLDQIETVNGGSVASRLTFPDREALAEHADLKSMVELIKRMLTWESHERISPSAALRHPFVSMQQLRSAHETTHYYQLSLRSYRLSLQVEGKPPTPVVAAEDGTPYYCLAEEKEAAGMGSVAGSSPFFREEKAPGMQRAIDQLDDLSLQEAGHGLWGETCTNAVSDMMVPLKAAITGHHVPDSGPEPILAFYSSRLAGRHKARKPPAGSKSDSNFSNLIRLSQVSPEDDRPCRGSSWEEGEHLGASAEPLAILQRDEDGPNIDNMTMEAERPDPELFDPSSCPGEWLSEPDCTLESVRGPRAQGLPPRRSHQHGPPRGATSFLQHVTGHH
How it was run: as §1

Sequence of RIPK2 (O43353 whole entry, species assumed): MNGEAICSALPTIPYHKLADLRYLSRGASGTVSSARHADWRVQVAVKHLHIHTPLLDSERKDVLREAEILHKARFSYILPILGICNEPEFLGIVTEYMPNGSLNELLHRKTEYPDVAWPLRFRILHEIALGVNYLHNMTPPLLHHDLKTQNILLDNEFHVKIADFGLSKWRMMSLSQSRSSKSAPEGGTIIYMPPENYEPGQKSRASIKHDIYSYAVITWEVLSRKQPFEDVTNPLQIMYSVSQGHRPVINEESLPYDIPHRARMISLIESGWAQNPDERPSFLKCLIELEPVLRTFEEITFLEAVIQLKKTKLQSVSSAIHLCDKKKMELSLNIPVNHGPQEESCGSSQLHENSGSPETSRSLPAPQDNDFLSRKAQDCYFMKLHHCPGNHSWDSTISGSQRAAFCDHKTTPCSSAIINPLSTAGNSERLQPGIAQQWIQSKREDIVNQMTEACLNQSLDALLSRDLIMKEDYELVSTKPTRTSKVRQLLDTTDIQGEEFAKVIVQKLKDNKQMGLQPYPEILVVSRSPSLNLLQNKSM

inhibition at 5 µM [1]	inhibition at 5 µM [2]	inhibition at 5 µM [3]	inhibition of kinase activity, LOK [4]	inhibition at 5 µM [5]	Structure (SMILES)
50 to 79%	50 to 79%	50 to 79%	C (C=80%-89% at 5 um)	≥ 95%	CNC(=O)c1cc(Oc2ccc(NC(=O)c3nc(OCC(F)(F)F)oc3-c3ccc(F)cc3)cc2F)ccn1 [Compound 38]
50 to 79%	50 to 79%	< 50%	E (category E is less than 50%)	≥ 95%	COc1nc(C(=O)Nc2ccc(Oc3ccnc(C(=O)NC4COC4)c3)c(F)c2)c(-c2ccc(F)cc2)o1 [Compound 39]
< 50%	< 50%	< 50%	E (category E is less than 50%)	≥ 95%	CSc1nc(C(=O)Nc2ccc(Oc3ccnc(C(=O)NCC(F)(F)F)c3)c(F)c2)c(-c2ccc(F)cc2)o1 [Compound 40]
80 to 89%	50 to 79%	< 50%	E (category E is less than 50%)	≥ 95%	CSc1nc(C(=O)Nc2ccc(Oc3ccnc(C(=O)NCCN(C)C)c3)c(F)c2)c(-c2ccc(F)cc2)o1 [Compound 41]
50 to 79%	< 50%	< 50%	E (category E is less than 50%)	≥ 95%	CSc1nc(C(=O)Nc2ccc(Oc3ccnc(C(=O)NC4CCN(C)CC4)c3)c(F)c2)c(-c2ccc(F)cc2)o1 [Compound 42]
< 50%	< 50%	< 50%	E (category E is less than 50%)	≥ 95%	COc1nc(C(=O)Nc2ccc(Oc3ccnc(C(=O)NCC(F)(F)F)c3)c(F)c2)c(-c2ccc(F)cc2)o1 [Compound 43]

The next lines start with the compound.

Structure (SMILES)	inhibition at 5 µM [1]	inhibition at 5 µM [2]	inhibition at 5 µM [3]	inhibition of kinase activity, LOK [4]	inhibition at 5 µM [5]
CNC(=O)c1cc(Oc2ccc(NC(=O)c3nc(OC4CC4)oc3-c3ccc(F)cc3)cc2F)ccn1 [Compound 32]	50 to 79%	90 to 94%	50 to 79%	B (B=90%-94% at 5 um)	≥ 95%
[2H]C([2H])([2H])NC(=O)c1cc(Oc2ccc(NC(=O)c3nc(SC)oc3-c3ccc(F)c(F)c3)cc2F)ccn1 [Compound 33]	50 to 79%	50 to 79%	< 50%	C (C=80%-89% at 5 um)	≥ 95%
CNC(=O)c1cc(Oc2ccc(NC(=O)c3nc(SC(C)C)oc3-c3ccc(F)cc3)cc2F)ccn1 [Compound 34]	50 to 79%	80 to 89%	80 to 89%	A (A=95% or greater at 5 um)	≥ 95%
[2H]C([2H])([2H])NC(=O)c1cc(Oc2ccc(NC(=O)c3nc(SC)oc3-c3ccc(F)s3)cc2F)ccn1 [Compound 35]	50 to 79%	50 to 79%	< 50%	D (category D for 50-79)	≥ 95%
CNC(=O)c1ccc(Oc2ccc(NC(=O)c3nc(Cl)oc3-c3ccc(F)cc3)c(F)c2)cn1 [Compound 36]	50 to 79%	< 50%	< 50%	E (category E is less than 50%)	80 to 89%
CSc1nc(C(=O)Nc2ccc(Oc3ccnc(C(=O)NC4COC4)c3)c(F)c2)c(-c2ccc(F)c(F)c2)o1 [Compound 37]	< 50%	< 50%	< 50%	E (category E is less than 50%)	≥ 95%
